Measurements taken from patent US12653914B2, “Compounds for fast and efficient click release” (priority 2019, dated 2026).
Read-outs that look alike come from different tables or passages of the source.

Assays:
[1] = format: in vitro ADME; details: human, 200 μM
Method: (§1) 1.13 was incubated at 37° C. in PBS and human plasma at a concentration of 200 μM. The concentration after 12, 24 and 48 h was determined (n=3) by titration with activator 2.9 and simultaneous absorbance measurements.

[2] = Second order rate constants, TCO with tetrazine activators, stopped-flow spectrophotometry in PBS; details: PBS at 37° C., 25 μM tetrazine, 50 μM TCO
Method: Second order rate constants for the reaction of tetrazines activators with 1.13 and 1.71 were determined using a SX20 stopped-flow spectrophotometer from Applied Photophysics. Measurements were performed at 37° C. with 25 μM tetrazine and 50 μM TCO in PBS, in triplicates, monitored at 535 nm. Data was analyzed using GraphPad Prism. Second order rate constants were determined from nonlinear fitting of the absorbance vs. time curves to the second order rate equation. […] Importantly, 2.17 and 2.18 are very reactive, but afford low release yields with TCO triggers that are not part of this invention (i.e. 1.71) [Versteegen et al., Angew. Chem. Int. Ed. 2013, 52, 14112-14116].

[3] = Trigger stability in vitro in PBS; format: physicochemical; details: 37° C., 200 μM, after 48 h, n=3
Method: as §1

For `COC(=O)[C@]1(O)CC/C=C/[C@H](OC(=O)NCCOCCOCCOCCO)CC1` [Compound 1.13, Methyl(1S,4E,6R)-1-hydroxy-6-{[(2-{2-[2-(2-hydroxyethoxy)ethoxy]ethoxy}ethyl)carbamoyl]oxy}cyclooct-4-ene-1-carboxylate], which “residual intact TCO” value ([1]; 24 h) is on record?
The value was 98±7%.

And the “residual intact TCO” value ([1]; 48 h)?
Its value is 76±9%.

What about the k2 ([2]; activator 2.12) of the same compound?
Its k2 is 260 ± 40 M⁻¹ s⁻¹.

And the k2 ([2]; activator 2.17)?
The k2 was 8700 ± 1200 M⁻¹ s⁻¹.

What about the k2 ([2]; activator 2.18) of the same compound?
The k2 was 10400 ± 1100 M⁻¹ s⁻¹.

And the k2 ([2]; activator 2.9)?
The k2 was 70 ± 10 M⁻¹ s⁻¹.

What about the “intact TCO” value [3] of the same compound?
The value was 101±5%.
